Here are results for two molecules from US9505841B2, “Use of an anti-Ang2 antibody” (Samsung Electronics Co., Ltd., priority 2013, dated 2016).

One assay deals with LLC tumor. Nature of the assay: Co-administration of anti-Ang2 antibody and cisplatin in LLC lung cancer animal model. The class given is in vivo, mouse. The settings on record: LLC mice; antibody 10 mg/kg i.p. every three days, five times; cisplatin 3 mg/kg i.p. once; control Fc of IgG1. The method, then:
The synergistic effect of co-treatment of antibody 10D6 and cisplatin was examined.
In particular, referring to Example 14, LLC tumor cells were subcutaneously injected into mice. When the size of tumors reached 50˜100 mm^3, anti-Ang2 antibody 10D6 was injected at the concentration of 10 mg/kg via an intraperitoneal injection every three days a total of five times. After administering antibody 10D6 twice, 3 mg/kg of cisplatin (Sigma-Aldrich) was intraperitoneally injected once. The size of tumor (V) was calculated using the following formula: Volume (V)=(width)2×length/2
For comparison, the same experiment was performed to a control group treated with Fc of IgG1 and a comparative group treated with antibody 4H10.
In addition, an experiment was performed to examine whether the synergistic effect obtained by co-administration of 10D6 and cisplatin as described above is due to the increased transporting efficiency of the administered cisplatin induced by the vascular normalization by treatment of 10D6. Cisplatin binds to DNA in a living body and induces crosslinking, thereby inducing cell death. Rat monoclonal anti-Cisplatin modified DNA (CP9/19) antibody (1:200, Abcam), which is capable of binding to DNA modified by cisplatin in tumor frozen sections, and hamster anti-CD31 antibody (1:200, Millipore), were used for immunofluorescence staining, and fluorescence images were obtained using LSM5 confocal microscope (Zeiss). In addition, to examine necrotic region, the tumor frozen sections were stained with H&E according to standard protocol, and then, Eosin+ cell region in tumor was observed. The obtained results are illustrated in FIG. 18C.

Another assay has as its system Tie2 receptor. As to the kind of experiment: Tie2, Akt and 42/44 phosphorylation in HUVEC: antibody 10D6 versus 10D6 Fab. The class given is cell-based, human. The settings on record: 60 nM 10D6 antibody or 10D6 Fab with 40 nM Ang2. The method, then:
To see whether the activation of a Tie2 receptor is resulted from the dimerization of antibody 10D6, Fab fragments of antibody 10D6 were purified and then used for this experiment. The Fab fragments were obtained from antibody 10D6 using an Fab Preparation Kit (Pierce). As a digestion buffer, PBS containing 20 mM EDTA and 20 mM L-Cysteine was used, and the antibody was separated into Fab and Fc by the treatment with an immobilized papain at a room temperature for 2 hours. The Fc fragments were removed from the reaction solution using MabSelectSuRe column (GE Healthcare) to isolate and purify pure Fab fragments only.
HUVEC (ATCC) cells (1×10^6) were cultured in a 100 mm culture dish using EGM-2 (Lonza) media at 37° C. and when they reached 80˜90% confluency, the media were replaced with serum-free media (Lonza) and cultured at 37° C. for 6 to 16 hours. The dish was washed once with PBS and after the replacement with […] sodium orthovanadate (Sigma)-mixed serum free media (Lonza), they were further cultured for 10 min. After washed once with PBS, the cultured cells were treated with a mixture prepared by mixing 60 nM of 10D6 Ang2 antibody or 10D6 Fab with 40 nM of Ang2 protein (R&D systems) and letting them stand for 20 min. and further cultured for 10 min. […]

As to `N.N.[Cl][Pt][Cl]` [cisplatin, reference compound], in the assay with LLC tumor, the “tumor size decreased by, compared to the control” value is 17.6%.

B1: 10D6 Fab: Fab fragments of antibody 10D6 obtained by immobilized papain digestion and removal of Fc (antibody, V domains shown)
VH: DVQLQESGPGLVKPSQSLSLTCTVTGYSITSDYAWNWIRQFPGNKLEWMGYINYSGNTDYNPSLKSRSSITRDTSKNQFFLQLNSVTTGDTATYYCARGNFEGAMDYWGQGTSVTVSS
VL: SIVMTQTPKFLLVSAGDRVTITCKASQSVSNDVAWYQQKPGQSPKLLIYYASNRYPGVPDRFTGSGYGTDFTFTISTVQAEDLAVYFCQQDYSSPWTFGGGTKLEIK
Take B1: in the assay with Tie2 receptor, the “phosphorylation of Tie2, Akt and 42/44” value is on record as “activation was not observed”.
